The text below walks through data of ChEMBL document CHEMBL2396531, “Hybrid molecule from O2-(2,4-dinitrophenyl)diazeniumdiolate and oleanolic acid: a glutathione S-transferase π-activated nitric oxide prodrug with selective anti-human hepatocellular carcinoma activity and improved stability” (J Med Chem, 2013).

Assay [1] relates to Bel-7402. Nature of the assay: Cytotoxicity against human Bel7402 cells at 30 uM after 24 hrs by MTT assay. It is filed as functional. In general terms: Tetrazolium assays rely on reduction of a dye to a coloured formazan, in cell work by metabolically active cells.
Assay [2] has as its system HepG2. Nature of the assay: Cytotoxicity against human HepG2 cells at 30 uM after 24 hrs by MTT assay. It is filed as functional.
The test system of assay [3] is SMMC-7721. Nature of the assay: Cytotoxicity against human SMMC7721 cells at 30 uM after 24 hrs by MTT assay. The class given is functional.
Assay [4] concerns HepG2. Briefly: Cytotoxicity against human HepG2 cells at 10 to 100 uM after 24 hrs by MTT assay. It is filed as functional, cell-based.
For assay [5], the system named is HepG2. Nature of the assay: Induction of intracellular NO release in human HepG2 cells at 30 uM after 6 hrs by Griess assay. It is filed as functional, cell-based.
Assay [6] has as its system HepG2. Nature of the assay: Induction of intracellular NO release in human HepG2 cells at 10 uM after 24 hrs by DAF-FM DA staining-based flow cytometry. The class given is functional, cell-based. (In flow cytometry, cells or beads pass a laser one at a time.)
Assay [7] concerns HepG2. Nature of the assay: Cytotoxicity against human HepG2 cells assessed as cell viability at 3 uM after 24 hrs by MTT assay in presence of hemoglobin. It is filed as functional, cell-based.
Assay [8] has as its system HepG2. Nature of the assay: Cytotoxicity against human HepG2 cells assessed as cell viability at 3 uM after 24 hrs by MTT assay. It is filed as functional.
The subject of assay [9] is HepG2. Briefly: Cytotoxicity against human HepG2 cells assessed as cell viability at 3 uM after 24 hrs by MTT assay in presence of EA. The class given is functional.

Activity calls are given as the source filed them. The calls are words filed in the database; no cut-off is given here.

Consider `CC(C)C[C@H](Nc1cc(O/N=[N+](\[O-])N(C)CCO)c([N+](=O)[O-])cc1[N+](=O)[O-])C(=O)O[C@H]1CC[C@]2(C)[C@H]3CC=C4[C@@H]5CC(C)(C)CC[C@]5(C(=O)O[C@@H]5O[C@H](CO)[C@H](O)[C@H](O)[C@H]5O)CC[C@@]4(C)[C@]3(C)CC[C@H]2C1(C)C`, for which the result in assay [1], in assay [2] and in assay [3] was Active.
For the molecule `CN(CCO)/[N+]([O-])=N\Oc1cc(N2CCN(CC(=O)O)CC2)c([N+](=O)[O-])cc1[N+](=O)[O-]`, the outcome in assay [4] was Active.
For the molecule `CN(CCO)/[N+]([O-])=N/Oc1cc(NCCCC(=O)O[C@H]2CC[C@]3(C)[C@H]4CC=C5[C@@H]6CC(C)(C)CC[C@]6(C(=O)O[C@@H]6O[C@H](CO)[C@H](O)[C@H](O)[C@H]6O)CC[C@@]5(C)[C@]4(C)CC[C@H]3C2(C)C)c([N+](=O)[O-])cc1[N+](=O)[O-]`, the result in [1], in assay [2] and in assay [3] was Active.
As to `CN1CCN(/[N+]([O-])=N\Oc2cc(NCCC(=O)O[C@H]3CC[C@]4(C)[C@H]5CC=C6[C@@H]7CC(C)(C)CC[C@]7(C(=O)O[C@@H]7O[C@H](CO)[C@H](O)[C@H](O)[C@H]7O)CC[C@@]6(C)[C@]5(C)CC[C@H]4C3(C)C)c([N+](=O)[O-])cc2[N+](=O)[O-])CC1`, the outcome in assay [1], in assay [2] and in assay [3] was Active.
`CC1(C)CC[C@]2(C(=O)O[C@@H]3O[C@H](CO)[C@H](O)[C@H](O)[C@H]3O)CC[C@]3(C)C(=CC[C@@H]4[C@@]5(C)CC[C@H](OC(=O)CCNc6cc(O/N=[N+](/[O-])N7CCN(Cc8ccccc8)CC7)c([N+](=O)[O-])cc6[N+](=O)[O-])C(C)(C)[C@@H]5CC[C@]43C)[C@@H]2C1`: the outcome in [1], in [2] and in assay [3] was Active.
For the molecule `CN(CCO)/[N+]([O-])=N/Oc1cc(NCC(=O)O[C@H]2CC[C@]3(C)[C@H]4CC=C5[C@@H]6CC(C)(C)CC[C@]6(C(=O)O[C@@H]6O[C@H](CO)[C@H](O)[C@H](O)[C@H]6O)CC[C@@]5(C)[C@]4(C)CC[C@H]3C2(C)C)c([N+](=O)[O-])cc1[N+](=O)[O-]`, the outcome in assay [5], in assay [1], in assay [2] and in assay [3] was Active.
`CC1(C)CC[C@]2(C(=O)O[C@@H]3O[C@H](CO)[C@H](O)[C@H](O)[C@H]3O)CC[C@]3(C)C(=CC[C@@H]4[C@@]5(C)CC[C@H](O)C(C)(C)[C@@H]5CC[C@]43C)[C@@H]2C1`: the result in [4] was Active.
Turning to `CN(CCO)/[N+]([O-])=N\Oc1cc(NCCC(=O)O[C@H]2CC[C@]3(C)[C@H]4CC=C5[C@@H]6CC(C)(C)CC[C@]6(C(=O)O[C@@H]6O[C@H](CO)[C@H](O)[C@H](O)[C@H]6O)CC[C@@]5(C)[C@]4(C)CC[C@H]3C2(C)C)c([N+](=O)[O-])cc1[N+](=O)[O-]`, the outcome in [5] was Active.
For the molecule `CN(CCO)/[N+]([O-])=N/Oc1cc(N[C@@H](Cc2ccccc2)C(=O)O[C@H]2CC[C@]3(C)[C@H]4CC=C5[C@@H]6CC(C)(C)CC[C@]6(C(=O)O[C@@H]6O[C@H](CO)[C@H](O)[C@H](O)[C@H]6O)CC[C@@]5(C)[C@]4(C)CC[C@H]3C2(C)C)c([N+](=O)[O-])cc1[N+](=O)[O-]`, the outcome in assay [1], in assay [2] and in assay [3] was Active.
Consider `CCOC(=O)N1CCN(/[N+]([O-])=N/Oc2ccc([N+](=O)[O-])cc2[N+](=O)[O-])CC1`, for which the result in assay [6] was Active.
For the molecule `CCN(CC)/[N+]([O-])=N\Oc1cc(NCCC(=O)O[C@H]2CC[C@]3(C)[C@H]4CC=C5[C@@H]6CC(C)(C)CC[C@]6(C(=O)O[C@@H]6O[C@H](CO)[C@H](O)[C@H](O)[C@H]6O)CC[C@@]5(C)[C@]4(C)CC[C@H]3C2(C)C)c([N+](=O)[O-])cc1[N+](=O)[O-]`, the result in [1], in assay [2] and in assay [3] was Active.
In the case of `C[C@H](Nc1cc(O/N=[N+](\[O-])N(C)CCO)c([N+](=O)[O-])cc1[N+](=O)[O-])C(=O)O[C@H]1CC[C@]2(C)[C@H]3CC=C4[C@@H]5CC(C)(C)CC[C@]5(C(=O)O[C@@H]5O[C@H](CO)[C@H](O)[C@H](O)[C@H]5O)CC[C@@]4(C)[C@]3(C)CC[C@H]2C1(C)C`, the outcome in assay [1], in assay [2] and in assay [3] was Active.
Consider `CN(CCO)c1cc(N2CCN(CC(=O)O[C@H]3CC[C@]4(C)[C@H]5CC=C6[C@@H]7CC(C)(C)CC[C@]7(C(=O)O[C@@H]7O[C@H](CO)[C@H](O)[C@H](O)[C@H]7O)CC[C@@]6(C)[C@]5(C)CC[C@H]4C3(C)C)CC2)c([N+](=O)[O-])cc1[N+](=O)[O-]`, for which, in assay [7], the result was inactive. Moreover, the outcome in assay [8], in [9] and in assay [4] was Active.
Consider `CN(C)/[N+]([O-])=N\Oc1cc(NCCC(=O)O[C@H]2CC[C@]3(C)[C@H]4CC=C5[C@@H]6CC(C)(C)CC[C@]6(C(=O)O[C@@H]6O[C@H](CO)[C@H](O)[C@H](O)[C@H]6O)CC[C@@]5(C)[C@]4(C)CC[C@H]3C2(C)C)c([N+](=O)[O-])cc1[N+](=O)[O-]`, for which the result in assay [1], in assay [2] and in assay [3] was Active.
